Assay results taken from patent US20120101100A1 (priority 2008, published 2012).
Converted amounts (≈) assume the structure as drawn.

Molecular target: S. aureus GyrB ATPase (Staphylococcus aureus, UniProt P0A0K8)
Test: S. aureus (SAU) GyrB ATPase inhibition, malachite green phosphate detection (E. coli GyrA + S. aureus GyrB)
Format: biochemical
Details: 10 compound concentrations; 500 μM ATP
Procedure, shortened: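 Phosphate from ATP hydrolysis (500 μM ATP) read as malachite green/molybdate absorbance at 650 nm after acid quench. Reaction: 1.25 nM S. aureus GyrB plus 1.25 nM E. coli GyrA, sheared DNA, Hepes pH 7.5 with Mg2+. IC50 fitted over 10 concentrations, normalised to DMSO (2%) and novobiocin (2 μM) controls.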

Chain of S. aureus GyrB ATPase (P0A0K8 whole entry): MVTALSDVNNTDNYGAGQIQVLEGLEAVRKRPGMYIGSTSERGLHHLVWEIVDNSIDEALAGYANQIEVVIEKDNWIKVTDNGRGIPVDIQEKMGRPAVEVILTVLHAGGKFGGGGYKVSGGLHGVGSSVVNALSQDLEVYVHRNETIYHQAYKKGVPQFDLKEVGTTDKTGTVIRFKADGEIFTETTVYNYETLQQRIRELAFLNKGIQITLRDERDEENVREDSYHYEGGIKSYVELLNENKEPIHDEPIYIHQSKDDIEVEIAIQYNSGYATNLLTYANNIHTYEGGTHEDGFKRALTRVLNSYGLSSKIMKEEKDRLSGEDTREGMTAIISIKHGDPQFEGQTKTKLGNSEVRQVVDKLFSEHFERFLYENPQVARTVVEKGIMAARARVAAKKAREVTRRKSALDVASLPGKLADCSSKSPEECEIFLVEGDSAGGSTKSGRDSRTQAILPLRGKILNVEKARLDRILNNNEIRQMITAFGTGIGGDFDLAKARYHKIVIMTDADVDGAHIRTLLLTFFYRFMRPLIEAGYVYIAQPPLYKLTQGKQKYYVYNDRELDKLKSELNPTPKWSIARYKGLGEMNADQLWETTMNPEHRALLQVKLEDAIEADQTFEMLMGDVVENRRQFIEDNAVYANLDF
Chain of S. aureus GyrB ATPase (P0AES4 whole entry, further chain): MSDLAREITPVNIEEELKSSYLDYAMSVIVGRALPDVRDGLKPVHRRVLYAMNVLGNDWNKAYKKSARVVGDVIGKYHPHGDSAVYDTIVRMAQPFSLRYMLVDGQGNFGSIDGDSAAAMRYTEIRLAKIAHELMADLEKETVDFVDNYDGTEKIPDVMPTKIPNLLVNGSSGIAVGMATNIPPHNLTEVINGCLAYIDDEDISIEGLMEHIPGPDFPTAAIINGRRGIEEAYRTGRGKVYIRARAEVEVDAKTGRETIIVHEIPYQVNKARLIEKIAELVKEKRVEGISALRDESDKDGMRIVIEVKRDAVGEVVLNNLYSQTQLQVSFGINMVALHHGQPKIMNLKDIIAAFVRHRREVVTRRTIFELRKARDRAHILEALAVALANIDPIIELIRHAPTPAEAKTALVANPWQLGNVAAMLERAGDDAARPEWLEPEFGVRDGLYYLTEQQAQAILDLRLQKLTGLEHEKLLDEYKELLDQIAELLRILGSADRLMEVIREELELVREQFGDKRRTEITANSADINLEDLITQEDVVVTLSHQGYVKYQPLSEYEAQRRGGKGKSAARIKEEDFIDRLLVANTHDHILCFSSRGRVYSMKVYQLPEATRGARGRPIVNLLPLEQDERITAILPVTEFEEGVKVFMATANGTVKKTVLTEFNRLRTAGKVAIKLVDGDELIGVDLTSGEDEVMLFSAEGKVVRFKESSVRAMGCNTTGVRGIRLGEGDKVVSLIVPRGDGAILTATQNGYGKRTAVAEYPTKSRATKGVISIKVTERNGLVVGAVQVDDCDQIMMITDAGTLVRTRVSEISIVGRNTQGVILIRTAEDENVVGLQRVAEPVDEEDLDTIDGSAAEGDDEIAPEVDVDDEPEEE

Row | SMILES | IC50
1 | CCNC(=O)Nc1cc(-c2nc(C(F)(F)F)cs2)c(-c2cccnc2)cn1 [Example 14, 1-Ethyl-3-(4-(4-(trifluoromethyl)thiazol-2-yl)-3,3′-bipyridin-6-yl)urea] | 10 nM

Same assay, conditions: compound concentration of 1.0 μM unless otherwise noted; average value where assay was carried out more than once; read-out: S. aureus (SAU) GyrB ATPase % Inhibition

Row | SMILES | inhibition at 1 µM
2 | CCNC(=O)Nc1cc(-c2nc(C(F)(F)F)cs2)c(-c2cccnc2)cn1 [Example 14, 1-Ethyl-3-(4-(4-(trifluoromethyl)thiazol-2-yl)-3,3′-bipyridin-6-yl)urea] | 86%
3 | CCNC(=O)Nc1cc(-c2nc(-c3cccc(OC)n3)cs2)c(-c2cncc(-c3n[nH]c(=O)o3)n2)cn1 [Example 262, 1-ethyl-3-(4-(4-(6-methoxypyridin-2-yl)thiazol-2-yl)-5-(6-(5-oxo-4,5-dihydro-1,3,4-oxadiazol-2-yl)pyrazin-2-yl)pyridin-2-yl)urea] | 97%
4 | CCNC(=O)Nc1cc(-c2nc(C(F)(F)F)cs2)c(-c2cncc(-c3nnc(C(C)(C)O)o3)c2)cn1 [Example 263, 1-ethyl-3-(5′-(5-(2-hydroxypropan-2-yl)-1,3,4-oxadiazol-2-yl)-4-(4-(trifluoromethyl)thiazol-2-yl)-3,3′-bipyridin-6-yl)urea] | 100%
5 | CCNC(=O)Nc1cc(-c2nc(C(F)(F)F)cs2)c(-c2cncc(-c3nnc(C(C)(C)OC(C)=O)o3)c2)cn1 [Example 264, 2-(5-(6′-(3-ethylureido)-4′-(4-(trifluoromethyl)thiazol-2-yl)-3,3′-bipyridin-5-yl)-1,3,4-oxadiazol-2-yl)propan-2-yl acetate] | 98%
6 | CCNC(=O)Nc1cc(-c2nc(C(F)(F)F)cs2)c(-c2cncc(-c3nnc(CC(C)=O)o3)c2)cn1 [Example 265, 1-ethyl-3-(5′-(5-(2-oxopropyl)-1,3,4-oxadiazol-2-yl)-4-(4-(trifluoromethyl)thiazol-2-yl)-3,3′-bipyridin-6-yl)urea] | 101%
7 | CCNC(=O)Nc1cc(-c2nc(C(F)(F)F)cs2)c(-c2cncc(-c3nnc(COCc4ccccc4)o3)c2)cn1 [Example 266, 1-(5′-(5-(benzyloxymethyl)-1,3,4-oxadiazol-2-yl)-4-(4-(trifluoromethyl)thiazol-2-yl)-3,3′-bipyridin-6-yl)-3-ethylurea] | 98%
8 | CCNC(=O)Nc1cc(-c2nc(C(F)(F)F)cs2)c(-c2cncc(-c3nnc(N(CC)CC)o3)c2)cn1 [Example 267, 1-(5′-(5-(diethylamino)-1,3,4-oxadiazol-2-yl)-4-(4-(trifluoromethyl)thiazol-2-yl)-3,3′-bipyridin-6-yl)-3-ethylurea] | 98%
9 | CCNC(=O)Nc1cc(-c2nc(C(F)(F)F)cs2)c(-c2cncc(-c3nnc(CN(C)C)o3)c2)cn1 [Example 268, 1-(5′-(5-((dimethylamino)methyl)-1,3,4-oxadiazol-2-yl)-4-(4-(trifluoromethyl)thiazol-2-yl)-3,3′-bipyridin-6-yl)-3-ethylurea] | 98%
10 | CCNC(=O)Nc1cc(-c2nc(C(F)(F)F)cs2)c(-c2cncc(-c3nnc(COC)o3)c2)cn1 [Example 270, 1-ethyl-3-(5′-(5-(methoxymethyl)-1,3,4-oxadiazol-2-yl)-4-(4-(trifluoromethyl)thiazol-2-yl)-3,3′-bipyridin-6-yl)urea] | 97%
11 | CCNC(=O)Nc1cc(-c2nc(C(F)(F)F)cs2)c(-c2cncc(-c3nnc(OCC)o3)c2)cn1 [Example 271, 1-(5′-(5-ethoxy-1,3,4-oxadiazol-2-yl)-4-(4-(trifluoromethyl)thiazol-2-yl)-3,3′-bipyridin-6-yl)-3-ethylurea] | 100%
12 | CCNC(=O)Nc1cc(-c2nc(C(F)(F)F)cs2)c(-c2cncc(-c3nnco3)c2)cn1 [Example 272, 1-(5′-(1,3,4-oxadiazol-2-yl)-4-(4-(trifluoromethyl)thiazol-2-yl)-3,3′-bipyridin-6-yl)-3-ethylurea] | 90%
13 | CCNC(=O)Nc1cc(-c2nc(C(F)(F)F)cs2)c(-c2cncc(-c3nnc(C4(O)CC4)o3)c2)cn1 [Example 273, 1-ethyl-3-(5′-(5-(1-hydroxycyclopropyl)-1,3,4-oxadiazol-2-yl)-4-(4-(trifluoromethyl)thiazol-2-yl)-3,3′-bipyridin-6-yl)urea] | 98%
14 | CCNC(=O)Nc1cc(-c2nc(C(F)(F)F)cs2)c(-c2cncc(-c3nnc(C(=O)N(C)C)o3)c2)cn1 [Example 274, 5-(6′-(3-ethylureido)-4′-(4-(trifluoromethyl)thiazol-2-yl)-3,3′-bipyridin-5-yl)-N,N-dimethyl-1,3,4-oxadiazole-2-carboxamide] | 99%
15 | CCNC(=O)Nc1cc(-c2nc(C(F)(F)F)cs2)c(-c2cncc(-c3nnc(C(C)O)o3)c2)cn1 (centres unmarked) [Example 275, 1-ethyl-3-(5′-(5-(1-hydroxyethyl)-1,3,4-oxadiazol-2-yl)-4-(4-(trifluoromethyl)thiazol-2-yl)-3,3′-bipyridin-6-yl)urea] | 98%
16 | CCNC(=O)Nc1cc(-c2nc(C(F)(F)F)cs2)c(-c2cncc(-c3nnc(COC(C)=O)o3)c2)cn1 [Example 276, (5-(6′-(3-ethylureido)-4′-(4-(trifluoromethyl)thiazol-2-yl)-3,3′-bipyridin-5-yl)-1,3,4-oxadiazol-2-yl)methyl acetate] | 98%
17 | CCNC(=O)Nc1cc(-c2nc(C(F)(F)F)cs2)c(-c2cncc(-c3nnc(COCCOC)o3)c2)cn1 [Example 278, 1-ethyl-3-(5′-(5-((2-methoxyethoxy)methyl)-1,3,4-oxadiazol-2-yl)-4-(4-(trifluoromethyl)thiazol-2-yl)-3,3′-bipyridin-6-yl)urea] | 68%
18 | CCNC(=O)Nc1cc(-c2nc(C(F)(F)F)cs2)c(-c2cncc(-c3nnc([C@H](N)C(C)C)o3)c2)cn1 [Example 280, (R)-1-(5′-(5-(1-amino-2-methylpropyl)-1,3,4-oxadiazol-2-yl)-4-(4-(trifluoromethyl)thiazol-2-yl)-3,3′-bipyridin-6-yl)-3-ethylurea] | 95%
19 | CCNC(=O)Nc1cc(-c2nc(C(F)(F)F)cs2)c(-c2cncc(-c3nnc(CN)o3)c2)cn1 [Example 281, 1-(5′-(5-(aminomethyl)-1,3,4-oxadiazol-2-yl)-4-(4-(trifluoromethyl)thiazol-2-yl)-3,3′-bipyridin-6-yl)-3-ethylurea] | 94%
20 | CCNC(=O)Nc1cc(-c2nc(C(F)(F)F)cs2)c(-c2cncc(C3=NNC(=O)CO3)c2)cn1 [Example 282, 1-ethyl-3-(5′-(5-oxo-5,6-dihydro-4H-1,3,4-oxadiazin-2-yl)-4-(4-(trifluoromethyl)thiazol-2-yl)-3,3′-bipyridin-6-yl)urea] | 96%
21 | CCNC(=O)Nc1cc(-c2nc(C(F)(F)F)cs2)c(-c2cncc(-c3nnc(C)n3N)c2)cn1 [Example 283, 1-(5′-(4-amino-5-methyl-4H-1,2,4-triazol-3-yl)-4-(4-(trifluoromethyl)thiazol-2-yl)-3,3′-bipyridin-6-yl)-3-ethylurea] | 94%
22 | CCNC(=O)Nc1cc(-c2cn(Cc3ccccc3)nn2)c(-c2cc(-c3n[nH]c(=O)o3)ccn2)cn1 [Example 288] | 91%

Tested on: Streptococcus pneumoniae
Test: Bacterial susceptibility testing in liquid media (MIC)
Format: cell-based
Details: against Streptococcus pneumoniae; lowest concentration reducing growth by 80% or more; 37° C., 24 hrs
Description: Compounds were tested for antimicrobial activity by susceptibility testing in liquid media. Compounds were dissolved in dimethylsulfoxide and tested in 10 doubling dilutions in the susceptibility assays. The organisms used in the assay were grown overnight on suitable agar media and then suspended in a liquid medium appropriate for the growth of the organism. The suspension was a 0.5 McFarland and a further 1 in 10 dilution was made into the same liquid medium to prepare the final organism suspension in 100 μL. Plates were incubated under appropriate conditions at 37° C. for 24 hrs prior to reading. The Minimum Inhibitory Concentration was determined as the lowest drug concentration able to reduce growth by 80% or more.

Row | SMILES | MIC
23 | CCNC(=O)Nc1cc(-c2nc(C(F)(F)F)cs2)c(-c2cccnc2)cn1 [Example 14, 1-Ethyl-3-(4-(4-(trifluoromethyl)thiazol-2-yl)-3,3′-bipyridin-6-yl)urea] | 0.39 µM (≈ 0.153 µg/mL)
